Test results from PubChem BioAssay (NCI).
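Briefly, cells in 96-well plates were exposed to five compound concentrations for 48 h, and endpoints were estimated by linear interpolation. At the GI50, growth is halved. TGI denotes the concentration required for complete inhibition of growth.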

Columns and labels:
Assay in all cases: NCI tumour cell line growth inhibition, 48 h
OVCAR-4 ovarian = system: OVCAR-4 ovarian
NCI-H522 lung = system: NCI-H522 lung
NCI-H23 lung = system: NCI-H23 lung
HT29 colon = system: HT29 colon
SF-268 CNS = system: SF-268 CNS
COLO 205 colon = system: COLO 205 colon
SK-OV-3 ovarian = system: SK-OV-3 ovarian
SF-539 CNS = system: SF-539 CNS
CAKI-1 renal = system: CAKI-1 renal
MDA-MB-435 = system: MDA-MB-435
NCI/ADR-RES ovarian = system: NCI/ADR-RES ovarian
UACC-62 melanoma = system: UACC-62 melanoma
A498 renal = system: A498 renal
IGROV1 ovarian = system: IGROV1 ovarian
OVCAR-3 ovarian = system: OVCAR-3 ovarian
LOX IMVI melanoma = system: LOX IMVI melanoma
NCI-H460 lung = system: NCI-H460 lung
SR leukemia = system: SR leukemia
TK-10 renal = system: TK-10 renal
PC-3 prostate = system: PC-3 prostate
HOP-62 NSCLC = system: HOP-62 NSCLC
HOP-92 NSCLC = system: HOP-92 NSCLC
K-562 leukemia = system: K-562 leukemia
SNB-75 CNS = system: SNB-75 CNS
T-47D breast = system: T-47D breast
NCI-H226 lung = system: NCI-H226 lung
A549 NSCLC = system: A549 NSCLC
DU-145 prostate = system: DU-145 prostate
KM12 colon = system: KM12 colon
RPMI-8226 leukemia = system: RPMI-8226 leukemia
ACHN renal = system: ACHN renal
SW-620 colon = system: SW-620 colon
MOLT-4 leukemia = system: MOLT-4 leukemia
U251 CNS = system: U251 CNS
OVCAR-8 ovarian = system: OVCAR-8 ovarian
MALME-3M melanoma = system: MALME-3M melanoma
786-0 renal = system: 786-0 renal
HCT-15 colon = system: HCT-15 colon
SK-MEL-28 melanoma = system: SK-MEL-28 melanoma
UO-31 renal = system: UO-31 renal
HS 578T breast = system: HS 578T breast
SN12C renal = system: SN12C renal
HCC-2998 colon = system: HCC-2998 colon
UACC-257 melanoma = system: UACC-257 melanoma
SF-295 CNS = system: SF-295 CNS
MDA-MB-231 breast = system: MDA-MB-231 breast
MCF7 breast = system: MCF7 breast
HL-60(TB) leukemia = system: HL-60(TB) leukemia
RXF 393 renal = system: RXF 393 renal
SNB-19 CNS = system: SNB-19 CNS
SK-MEL-2 melanoma = system: SK-MEL-2 melanoma
BT-549 breast = system: BT-549 breast
SK-MEL-5 melanoma = system: SK-MEL-5 melanoma
HCT-116 colon = system: HCT-116 colon
M14 melanoma = system: M14 melanoma
CCRF-CEM leukemia = system: CCRF-CEM leukemia
OVCAR-5 ovarian = system: OVCAR-5 ovarian

SMILES: COc1cccc(C2=C(c3cn(C)c4ccc(Cl)cc34)C(=O)NC2=O)c1
- GI50 (OVCAR-4 ovarian): 6.96 µM
- TGI (OVCAR-4 ovarian): > 25 µM
- GI50 (NCI-H522 lung): 5.48 µM
- TGI (NCI-H522 lung): > 17.9 µM
- GI50 (NCI-H23 lung): 7.15 µM
- TGI (NCI-H23 lung): > 19.1 µM
- GI50 (HT29 colon): 4.14 µM
- TGI (HT29 colon): > 24.1 µM
- GI50 (SF-268 CNS): 11.5 µM
- TGI (SF-268 CNS): > 25 µM
- GI50 (COLO 205 colon): 3.92 µM
- TGI (COLO 205 colon): 8.57 µM
- GI50 (SK-OV-3 ovarian): 7.29 µM
- TGI (SK-OV-3 ovarian): > 22 µM
- GI50 (SF-539 CNS): 6.06 µM
- TGI (SF-539 CNS): > 15.9 µM
- GI50 (CAKI-1 renal): 4.87 µM
- TGI (CAKI-1 renal): 16.8 µM
- GI50 (MDA-MB-435): 6.48 µM
- TGI (MDA-MB-435): > 16.4 µM
- GI50 (NCI/ADR-RES ovarian): 6.13 µM
- TGI (NCI/ADR-RES ovarian): 19.8 µM
- GI50 (UACC-62 melanoma): 5.67 µM
- TGI (UACC-62 melanoma): 12.8 µM
- GI50 (A498 renal): 4.03 µM
- TGI (A498 renal): 12.5 µM
- GI50 (IGROV1 ovarian): 7.62 µM
- TGI (IGROV1 ovarian): > 17.5 µM
- GI50 (OVCAR-3 ovarian): 7.47 µM
- TGI (OVCAR-3 ovarian): > 17.2 µM
- GI50 (LOX IMVI melanoma): 4.92 µM
- TGI (LOX IMVI melanoma): > 16.1 µM
- GI50 (NCI-H460 lung): 7.57 µM
- TGI (NCI-H460 lung): > 19.1 µM
- GI50 (SR leukemia): 5.77 µM
- TGI (SR leukemia): > 18.6 µM
- GI50 (TK-10 renal): 10.4 µM
- TGI (TK-10 renal): > 23.8 µM
- GI50 (PC-3 prostate): 6.16 µM
- TGI (PC-3 prostate): > 19.6 µM
- GI50 (HOP-62 NSCLC): 7.22 µM
- TGI (HOP-62 NSCLC): 21.4 µM
- GI50 (HOP-92 NSCLC): > 25 µM
- TGI (HOP-92 NSCLC): > 25 µM
- GI50 (K-562 leukemia): 6.54 µM
- TGI (K-562 leukemia): > 19.8 µM
- GI50 (SNB-75 CNS): 3.1 µM
- TGI (SNB-75 CNS): > 25 µM
- GI50 (T-47D breast): 4.19 µM
- TGI (T-47D breast): 17.4 µM
- GI50 (NCI-H226 lung): 5.17 µM
- TGI (NCI-H226 lung): 19.1 µM
- GI50 (A549 NSCLC): 6.84 µM
- TGI (A549 NSCLC): > 25 µM
- GI50 (DU-145 prostate): 10.9 µM
- TGI (DU-145 prostate): > 22.1 µM
- GI50 (KM12 colon): 4.95 µM
- TGI (KM12 colon): 11.4 µM
- GI50 (RPMI-8226 leukemia): 5.9 µM
- TGI (RPMI-8226 leukemia): > 20.4 µM
- GI50 (ACHN renal): 6.65 µM
- TGI (ACHN renal): > 19.6 µM
- GI50 (SW-620 colon): 8.79 µM
- TGI (SW-620 colon): > 25 µM
- GI50 (MOLT-4 leukemia): 5.14 µM
- TGI (MOLT-4 leukemia): > 18.8 µM
- GI50 (U251 CNS): 5.94 µM
- TGI (U251 CNS): > 16.8 µM
- GI50 (OVCAR-8 ovarian): 6.61 µM
- TGI (OVCAR-8 ovarian): > 20.3 µM
- GI50 (MALME-3M melanoma): 13.9 µM
- TGI (MALME-3M melanoma): > 20 µM
- GI50 (786-0 renal): 6.5 µM
- TGI (786-0 renal): > 18.9 µM
- GI50 (HCT-15 colon): 6.4 µM
- TGI (HCT-15 colon): > 25 µM
- GI50 (SK-MEL-28 melanoma): 7.87 µM
- TGI (SK-MEL-28 melanoma): > 20.5 µM
- GI50 (UO-31 renal): 5.07 µM
- TGI (UO-31 renal): > 17.4 µM
- GI50 (HS 578T breast): 6.76 µM
- TGI (HS 578T breast): > 25 µM
- GI50 (SN12C renal): 4.96 µM
- TGI (SN12C renal): 14.2 µM
- GI50 (HCC-2998 colon): 9.02 µM
- TGI (HCC-2998 colon): > 23 µM
- GI50 (UACC-257 melanoma): 9.86 µM
- TGI (UACC-257 melanoma): > 21.5 µM
- GI50 (SF-295 CNS): 5.28 µM
- TGI (SF-295 CNS): > 15.1 µM
- GI50 (MDA-MB-231 breast): 8.3 µM
- TGI (MDA-MB-231 breast): > 20.6 µM
- GI50 (MCF7 breast): 2.85 µM
- TGI (MCF7 breast): > 25 µM
- GI50 (HL-60(TB) leukemia): 6.84 µM
- TGI (HL-60(TB) leukemia): 14.6 µM
- GI50 (RXF 393 renal): 3.66 µM
- TGI (RXF 393 renal): 8.33 µM
- GI50 (SNB-19 CNS): 13.4 µM
- TGI (SNB-19 CNS): > 25 µM
- GI50 (SK-MEL-2 melanoma): 7.24 µM
- TGI (SK-MEL-2 melanoma): > 18 µM
- GI50 (BT-549 breast): 7.01 µM
- TGI (BT-549 breast): > 19 µM
- GI50 (SK-MEL-5 melanoma): 3.63 µM
- TGI (SK-MEL-5 melanoma): 8.35 µM
- GI50 (HCT-116 colon): 3.8 µM
- TGI (HCT-116 colon): > 13.7 µM
- GI50 (M14 melanoma): 10.3 µM
- TGI (M14 melanoma): > 25 µM
- GI50 (CCRF-CEM leukemia): 4.39 µM
- TGI (CCRF-CEM leukemia): 15.7 µM
- GI50 (OVCAR-5 ovarian): 15.3 µM
- TGI (OVCAR-5 ovarian): > 25 µM
